Source: ChEMBL document CHEMBL4387733, “Design, synthesis and biological evaluation of indane derived GPR40 agoPAMs” (Bioorg Med Chem Lett, 2019)
Values after ≈ are worked out from the molar mass of the structure shown. Active and inactive are the calls of the source. No cut-off for these calls is given here.

How the values were obtained:
Rattus norvegicus [1] = assay: Hypoglycemic activity in Sprague-Dawley rat assessed as reduction in blood glucose AUC at 0.3 mg/kg, po pretreated for 1 hr followed by glucose challenge by OGTT relative to control; format: functional
[2] = molecular target: T1, Free fatty acid receptor 1 (Homo sapiens, UniProt O14842); assay: Positive allosteric modulation of recombinant human GPR40 expressed in HEK293 cells assessed as increase in [3H]-myo-inositol phosphate accumulation measured after 60 mins in presence of 100% human serum by microbeta counting method relative to control; format: functional, cell-based
T1 sequence (O14842 whole entry): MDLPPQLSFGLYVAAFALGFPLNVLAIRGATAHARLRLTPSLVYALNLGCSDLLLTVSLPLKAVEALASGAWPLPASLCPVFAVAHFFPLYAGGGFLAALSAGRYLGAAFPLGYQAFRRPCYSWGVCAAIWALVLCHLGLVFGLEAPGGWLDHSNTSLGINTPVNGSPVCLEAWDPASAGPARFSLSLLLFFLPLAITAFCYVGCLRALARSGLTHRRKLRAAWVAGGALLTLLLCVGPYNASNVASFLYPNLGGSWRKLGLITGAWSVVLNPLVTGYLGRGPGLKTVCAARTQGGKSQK

[3] = molecular target: T1, Free fatty acid receptor 1; assay: Positive allosteric modulation of recombinant human GPR40 expressed in HEK293 cells assessed as increase in [3H]-myo-inositol phosphate accumulation measured after 60 mins in absence of human serum by microbeta counting method relative to control; format: functional, cell-based; set-up: concentration or dose not given beside the values
[4] = molecular target: T1, Free fatty acid receptor 1; assay: Positive allosteric modulation of recombinant human GPR40 expressed in HEK293 cells assessed as increase in [3H]-myo-inositol phosphate accumulation measured after 60 mins in presence of 100% human serum by microbeta counting method; format: functional, cell-based
[5] = Protein binding in human plasma assessed as unbound fraction level; format: ADME, cell-free
[6] = molecular target: T1, Free fatty acid receptor 1; assay: Agonist activity at GPR40 (unknown origin) assessed as […] in IP1 accumulation; format: functional
Rattus norvegicus [7] = assay: Hypoglycemic activity in Sprague-Dawley rat assessed as reduction in blood glucose AUC at 10 mg/kg, po pretreated for 1 hr followed by glucose challenge by OGTT relative to control; format: functional; set-up: scale not given: the % may be the effect or the level left
[8] = molecular target: T1, Free fatty acid receptor 1; assay: Positive allosteric modulation of recombinant human GPR40 expressed in HEK293 cells assessed as increase in [3H]-myo-inositol phosphate accumulation measured after 60 mins in absence of human serum by microbeta counting method; format: functional, cell-based
[9] = Stability of the compound in pH 7.4 potassium phosphate buffer at 10 uM measured after 5 hrs; format: physicochemical; details: pH 7.4, 5 h
[10] = Drug metabolism in pH 7.4 potassium phosphate buffer assessed as TAK-875 formation at 10 uM measured after 5 hrs
[11] = Unbound drug level in Wistar Han rat plasma at 1 mg/kg, iv or 2 mg/kg, po measured at 3 hrs; format: ADME, organism-based; details: in vivo
[12] = Total drug level in Wistar Han rat plasma at 1 mg/kg, iv or 2 mg/kg, po measured at 3 hrs; format: ADME, organism-based
[13] = Cmax in Wistar Han rat at 1 mg/kg, iv or 2 mg/kg, po; format: ADME, organism-based; details: in vivo
[14] = Oral bioavailability in Wistar Han rat at 2 mg/kg; format: ADME, organism-based; details: in vivo
[15] = Half-life in Wistar Han rat at 1 mg/kg, iv or 2 mg/kg, po; format: ADME, organism-based; details: in vivo
[16] = Volume of distribution in Wistar Han rat at 1 mg/kg, iv or 2 mg/kg, po; format: ADME, organism-based; details: in vivo
[17] = Dose normalized AUC in Wistar Han rat at 2 mg/kg, po; format: ADME, organism-based; details: in vivo
[18] = Clearance in Wistar Han rat at 1 mg/kg, iv or 2 mg/kg, po; format: ADME, organism-based; details: in vivo
Rattus norvegicus [19] = assay: Hypoglycemic activity in Sprague-Dawley rat assessed as reduction in blood glucose AUC at 3 mg/kg, ip measured after 3 hrs by IPGTT relative to control; format: functional
[20] = Drug level in Wistar Han rat assessed as unbound fraction at 1 mg/kg, iv or 2 mg/kg, po; format: ADME, organism-based; details: in vivo
[21] = Solubility of the compound in FASSIF; format: physicochemical

Row | Activity [2] [%] | Activity [3] [%] | EC50 [4] [µM] | fEC50 [4] [nM] | Fu [5] [%] | EC50 [8] [µM] | Compound | other results
1 |  |  |  |  |  |  | Cc1cc(OCCCS(C)(=O)=O)cc(C)c1-c1cccc(COc2ccc3c(c2)OC[C@H]3CC(=O)O)c1 | Activity (Rattus norvegicus [1]): Active
2 | 221 | 457 | 3.32 | 4.3 | 0.13 |  | COc1ccc(F)c(-c2cc3c(cn2)[C@H](Oc2cccc([C@H](C4CC4)[C@H](C)C(=O)O)c2)CC3)c1 | fold change (FC) [6]: < 100
3 |  |  |  |  |  |  | CC#C[C@@H](CC(=O)O)c1ccc(OCc2cccc(-c3ccc(C(F)(F)F)cc3)c2)cc1 | Activity (Rattus norvegicus [1]): Active
4 |  |  | > 10 |  | 0.05 |  | COc1ccc(F)c(-c2ccc(COc3cccc([C@@H](CC(=O)O)C4CC4)c3)cc2)c1 | 
5 | 131 | 352 | 5.95 | 3.7 |  |  | COc1ccc(F)c(-c2ccc3c(c2)CC[C@H]3Oc2cccc([C@@H](CC(=O)O)C3CC3)c2)c1 | 
6 | 107 | 159 | 4.9 | 7.8 | 0.16 |  | COc1ccc(F)c(-c2cnc3c(c2)CC[C@H]3Oc2cccc([C@H](C3CC3)[C@H](C)C(=O)O)c2)c1 | 
7 |  | 224 | > 10 |  |  |  | COc1ccc(F)c(-c2cc(F)c3c(c2)CC[C@H]3Oc2cccc([C@@H](CC(=O)O)C3CC3)c2)c1 | 
8 |  |  |  |  |  |  | O=C1NC(=O)C(C2CCOc3cc(Oc4ccc(C(F)(F)F)cc4Cl)ccc32)S1 (centres undefined) | Activity (Rattus norvegicus [7]): 97%
9 | 84 | 339 | 5.49 | 0.6 |  | 0.06 | COc1ccc(F)c(-c2ccc3c(c2)CC[C@@H]3Oc2cccc([C@H](C3CC3)[C@H](C)C(=O)O)c2)c1 | 
10 |  |  |  |  |  |  | Cc1cc(OCCCS(C)(=O)=O)cc(C)c1-c1cccc(COc2ccc3c(c2)OC[C@H]3CC(=O)OC2O[C@H](C(=O)O)[C@@H](O)[C@H](O)[C@H]2O)c1 (some centres undefined) | Stability [9]: Unstable; Drug metabolism [10]: Metabolite detected
11 | 372 | 448 | 3.55 | 3.2 | 0.04 | 0.011 | COc1cc(-c2ccc3c(c2)CC[C@H]3Oc2cccc([C@H](C3CC3)[C@H](C)C(=O)O)c2)ccn1 | 
12 | 318 | 342 | 0.245 | 0.08 | 0.05 | 0.002 | COc1cc(-c2ccc3c(c2)CC[C@H]3Oc2cccc([C@H](C3CC3)[C@H](C)C(=O)O)c2F)c(F)cn1 | Cp(f) [11]: 0.0003 µM; concentration at 3 h [12]: 0.6 µM; Cmax [13]: 6.3 µM; bioavailability [14]: > 100%; half-life [15]: 5.1 h; Vd [16]: 0.78 L/kg; AUC/dose [17]: 36.2 µM·h; clearance [18]: 0.174 L/h/kg; inhibition in vivo at 3 mg/kg (Rattus norvegicus [19]): 49%; Fu [20]: 0.05%
13 |  |  |  |  |  |  | COc1ccc(F)c(-c2ccc([C@@H]3CCc4ccc([C@H](C5CC5)[C@H](C)C(=O)O)cc4O3)cc2)c1 | solubility [21]: 125 µM (≈ 57.6 µg/mL)
14 |  | 224 | > 10 |  |  | 0.155 | COc1ccc(F)c(-c2cc3c(cc2F)[C@H](Oc2cccc([C@H](C4CC4)[C@H](C)C(=O)O)c2)CC3)c1 | 
15 | 138 | 291 | 7.35 | 66 | 0.9 | 0.016 | COc1ccc(F)c(-c2ccc3c(c2)OC[C@@H]3Oc2cccc([C@@H](CC(=O)O)C3CC3)c2)c1 | 
16 | 264 | 395 | 0.127 | 0.03 | 0.02 | 0.003 | COc1ccc(F)c(-c2ccc3c(c2)CC[C@H]3Oc2cccc([C@H](C3CC3)[C@H](C)C(=O)O)c2F)c1 | Cp(f) [11]: 0.0005 µM; concentration at 3 h [12]: 2.5 µM; Cmax [13]: 2.9 µM; bioavailability [14]: > 100%; half-life [15]: 3.1 h; Vd [16]: 0.85 L/kg; AUC/dose [17]: 9.3 µM·h; clearance [18]: 0.168 L/h/kg; inhibition in vivo at 3 mg/kg (Rattus norvegicus [19]): 10%; Fu [20]: 0.02%
17 | 297 | 352 | 0.81 | 0.32 |  | 0.0039 | COc1ccc(F)c(-c2ccc3c(c2F)CC[C@H]3Oc2cccc([C@H](C3CC3)[C@H](C)C(=O)O)c2)c1 | 
18 | 110 | 101 | 5.45 | 2.3 |  | 0.326 | COc1ccc(F)c(-c2ccc3c(c2C2=CCCC2(C)C)CC[C@H]3Oc2cccc([C@H](C3CC3)[C@H](C)C(=O)O)c2)c1 | 
19 |  | 366 | > 10 |  |  | 0.151 | COc1ccc(F)c(-c2ccc3c(n2)CC[C@H]3Oc2cccc([C@H](C3CC3)[C@H](C)C(=O)O)c2)c1 | 
20 | 446 | 472 | 0.867 | 0.26 | 0.03 | 0.003 | COc1cc(-c2ccc3c(c2)CC[C@H]3Oc2cccc([C@H](C3CC3)[C@H](C)C(=O)O)c2)c(F)cn1 | Cp(f) [11]: 0.00057 µM; concentration at 3 h [12]: 1.9 µM; Cmax [13]: 10.7 µM; bioavailability [14]: 54%; half-life [15]: 3.9 h; Vd [16]: 0.18 L/kg; AUC/dose [17]: 99.9 µM·h; clearance [18]: 0.036 L/h/kg; inhibition in vivo at 3 mg/kg (Rattus norvegicus [19]): 94%; Fu [20]: 0.03%
21 |  | 377 | > 10 |  |  | 0.059 | COc1ccc(F)c(-c2ccc3c(c2)CC[C@H]3Oc2cccc([C@H](C3CC3)[C@@H](C)C(=O)O)c2)c1 | 
